Data reported in PMC11003488 (Journal of Enzyme Inhibition and Medicinal Chemistry, 2023).
Like-named read-outs stand apart in the source and are kept apart here.

Columns and labels:
NCI-H460 = experiment: NCI-60 SRB growth inhibition, one-dose and five-dose; type: cell-based; details: Homo sapiens
HCT-116 = experiment: as above; type: cell-based; details: Homo sapiens
[1] = test system: NCI 60-cell line panel (full panel); experiment: NCI-60 SRB growth inhibition, full panel mean / MG-MID; type: cell-based, human; details: for GI50: Homo sapiens, 60 cell
SNB-19 = experiment: NCI-60 SRB growth inhibition, one-dose and five-dose; type: cell-based; details: Homo sapiens
T-47D = experiment: as above; type: cell-based; details: Homo sapiens, T47D
MALME-3M = experiment: as above; type: cell-based; details: Homo sapiens
HOP-92 = experiment: as above; type: cell-based; details: Homo sapiens
SR = experiment: as above; type: cell-based; details: Homo sapiens
786-0 = experiment: as above; type: cell-based; details: Homo sapiens
NCI-H226 = experiment: as above; type: cell-based; details: Homo sapiens
OVCAR-4 = experiment: as above; type: cell-based; details: Homo sapiens
HCC-2998 = experiment: as above; type: cell-based; details: Homo sapiens
MCF7 = experiment: as above; type: cell-based; details: Homo sapiens
SK-MEL-5 = experiment: as above; type: cell-based; details: Homo sapiens
BT-549 = experiment: as above; type: cell-based; details: Homo sapiens
NCI-H522 = experiment: as above; type: cell-based; details: Homo sapiens
K-562 = experiment: as above; type: cell-based; details: Homo sapiens
SF-295 = experiment: as above; type: cell-based; details: Homo sapiens
HOP-62 = experiment: as above; type: cell-based; details: Homo sapiens
CCRF-CEM = experiment: as above; type: cell-based; details: Homo sapiens
CAKI-1 = experiment: as above; type: cell-based; details: Homo sapiens
HCT-15 = experiment: as above; type: cell-based; details: Homo sapiens
NCI/ADR-RES = experiment: as above; type: cell-based; details: Homo sapiens
RXF 393 = experiment: as above; type: cell-based; details: Homo sapiens
MDA-MB-435 = experiment: as above; type: cell-based; details: Homo sapiens
SF-268 = experiment: as above; type: cell-based; details: Homo sapiens
OVCAR-3 = experiment: as above; type: cell-based; details: Homo sapiens
SF-539 = experiment: as above; type: cell-based; details: Homo sapiens
HS 578 T = experiment: as above; type: cell-based; details: Homo sapiens
LOX IMVI = experiment: as above; type: cell-based; details: Homo sapiens
A498 = experiment: as above; type: cell-based; details: Homo sapiens
UACC-62 = experiment: as above; type: cell-based; details: Homo sapiens
SK-MEL-2 = experiment: as above; type: cell-based; details: Homo sapiens, SK-MEL-2, read-out: percent growth inhibition
SNB-75 = experiment: as above; type: cell-based; details: Homo sapiens
ACHN = experiment: as above; type: cell-based; details: Homo sapiens
A549/ATCC = experiment: as above; type: cell-based; details: Homo sapiens
DU-145 = experiment: as above; type: cell-based; details: Homo sapiens
COLO 205 = experiment: as above; type: cell-based; details: Homo sapiens
IGROV1 = experiment: as above; type: cell-based; details: Homo sapiens
OVCAR-5 = experiment: as above; type: cell-based; details: Homo sapiens
HT29 = experiment: as above; type: cell-based; details: Homo sapiens
NCI-H322M = experiment: as above; type: cell-based; details: Homo sapiens
[2] = read-out: percent growth inhibition

`CC(=O)Nc1ccc(CNc2cccc(C(=O)/C=C/c3cccnc3)c2)cc1` [Compound 5b, (E)-N-(4-(((3–(3-(pyridin-3-yl)acryloyl)phenyl)amino)methyl)phenyl)acetamide] gave a GI50 (NCI-H460; NCI-H460) of 2.87 µM, an inhibition at 10 µM (NCI-H460; NCI-H460, read-out: percent growth inhibition) of 107% and a GI50 (HCT-116; HCT-116, HCT-116, five-dose screening) of 1.8 µM. For the same compound, the inhibition at 10 µM (HCT-116; HCT-116, read-out: percent growth inhibition) was 196%, the GI50 ([1]; read-out: Full panel GI50 mean) was 4.65 µM and the GI50 ([1]; read-out: Full panel MG-MID GI50) was 4.65 µM. The “Full panel Mean GI %” value ([1]; mean over NCI-60 panel, single dose 10 µM) was 123.16%, the GI50 (SNB-19; SNB-19) was 3.61 µM and the inhibition at 10 µM (SNB-19; SNB-19, read-out: percent growth inhibition) was 99.1%. It also gave a GI50 (T-47D) of 4.14 µM, an inhibition at 10 µM (T-47D; [2]) of 82% and a GI50 (MALME-3M) of 2.19 µM. It also gave an inhibition at 10 µM (MALME-3M; [2]) of 132%, a GI50 (HOP-92; HOP-92) of 8.47 µM and an inhibition at 10 µM (HOP-92; HOP-92, read-out: percent growth inhibition) of 68.5%. The GI50 (SR) was 2.01 µM, the GI50 (786-0; 786-0) was 3.43 µM and the inhibition at 10 µM (786-0; 786-0, read-out: percent growth inhibition) was 160%. For the same compound, the GI50 (NCI-H226; NCI-H226) was 2.76 µM, the inhibition at 10 µM (NCI-H226; NCI-H226, read-out: percent growth inhibition) was 116% and the GI50 (OVCAR-4; OVCAR-4) was 8.63 µM. It also gave an inhibition at 10 µM (OVCAR-4; OVCAR-4, read-out: percent growth inhibition) of 88.5%, a GI50 (HCC-2998; HCC 2998) of 1.82 µM and an inhibition at 10 µM (HCC-2998; HCC 2998, read-out: percent growth inhibition) of 195%. For the same compound, the GI50 (MCF7; MCF7) was 1.38 µM, the inhibition at 10 µM (MCF7; MCF7, read-out: percent growth inhibition) was 178% and the GI50 (SK-MEL-5; SK-MEL-5) was 6.51 µM. For the same compound, the inhibition at 10 µM (SK-MEL-5; SK-MEL-5, read-out: percent growth inhibition) was 174%, the GI50 (BT-549; BT-549) was 2.78 µM and the inhibition at 10 µM (BT-549; BT-549, read-out: percent growth inhibition) was 174%. It also gave a GI50 (NCI-H522; NCI-H522) of 1.67 µM, an inhibition at 10 µM (NCI-H522; NCI-H522, read-out: percent growth inhibition) of 165% and a GI50 (K-562; K562) of 2.52 µM. For the same compound, the inhibition at 10 µM (K-562; K562, read-out: percent growth inhibition) was 99.8%, the GI50 (SF-295; SF-295) was 10.3 µM and the inhibition at 10 µM (SF-295; SF-295, read-out: percent growth inhibition) was 91.9%. For the same compound, the GI50 (HOP-62; HOP-62) was 12.7 µM, the inhibition at 10 µM (HOP-62; HOP-62, read-out: percent growth inhibition) was 74% and the GI50 (CCRF-CEM) was 2.8 µM. It also gave an inhibition at 10 µM (CCRF-CEM; [2]) of 141%, a GI50 (CAKI-1; CAKI-1) of 12.2 µM and an inhibition at 10 µM (CAKI-1; CAKI-1, read-out: percent growth inhibition) of 95.9%. For the same compound, the GI50 (HCT-15; HCT-15) was 2.05 µM, the inhibition at 10 µM (HCT-15; HCT-15, read-out: percent growth inhibition) was 138% and the GI50 (NCI/ADR-RES) was 3.12 µM. For the same compound, the inhibition at 10 µM (NCI/ADR-RES; [2]) was 91.1%, the GI50 (RXF 393; RXF 393) was 3.09 µM and the inhibition at 10 µM (RXF 393; RXF 393, read-out: percent growth inhibition) was 194%. The GI50 (MDA-MB-435; MDA-MB-435) was 2.28 µM, the inhibition at 10 µM (MDA-MB-435; MDA-MB-435, read-out: percent growth inhibition) was 124% and the GI50 (SF-268; SF-268) was 13.6 µM. It also gave an inhibition at 10 µM (SF-268; SF-268, read-out: percent growth inhibition) of 88.6%, a GI50 (OVCAR-3; OVCAR-3) of 2.85 µM and an inhibition at 10 µM (OVCAR-3; OVCAR-3, read-out: percent growth inhibition) of 190%. It also gave a GI50 (SF-539; SF-539) of 6.35 µM, an inhibition at 10 µM (SF-539; SF-539, read-out: percent growth inhibition) of 170% and a GI50 (HS 578 T) of 2.57 µM. It also gave an inhibition at 10 µM (HS 578 T; [2]) of 88.3%, a GI50 (LOX IMVI) of 1.65 µM and an inhibition at 10 µM (LOX IMVI; [2]) of 199%. For the same compound, the GI50 (A498; A498) was 13.4 µM, the inhibition at 10 µM (A498; A498, read-out: percent growth inhibition) was 17.5% and the GI50 (UACC-62; UACC-62) was 5.03 µM. For the same compound, the inhibition at 10 µM (UACC-62; UACC-62, read-out: percent growth inhibition) was 162%, the inhibition at 10 µM (SK-MEL-2) was 52.7% and the GI50 (SNB-75; SNB-75) was 8.99 µM. For the same compound, the inhibition at 10 µM (SNB-75; SNB-75, read-out: percent growth inhibition) was 31.8%, the GI50 (ACHN) was 1.9 µM and the inhibition at 10 µM (ACHN; [2]) was 165%. The GI50 (A549/ATCC; A549) was 14.9 µM, the inhibition at 10 µM (A549/ATCC; A549, read-out: percent growth inhibition) was 27.8% and the GI50 (DU-145; DU-145) was 5.15 µM. The inhibition at 10 µM (DU-145; DU-145, read-out: percent growth inhibition) was 92.2%, the GI50 (COLO 205; COLO 205) was 10.9 µM and the inhibition at 10 µM (COLO 205; COLO 205, read-out: percent growth inhibition) was 156%. For the same compound, the GI50 (IGROV1; IGROV-1) was 2.3 µM, the inhibition at 10 µM (IGROV1; IGROV-1, read-out: percent growth inhibition) was 123% and the GI50 (OVCAR-5; OVCAR-5) was 3.44 µM. It also gave an inhibition at 10 µM (OVCAR-5; OVCAR-5, read-out: percent growth inhibition) of 103%, a GI50 (HT29; HT-29) of 2.19 µM and an inhibition at 10 µM (HT29; HT-29, read-out: percent growth inhibition) of 182%. For the same compound, the GI50 (NCI-H322M) was 13.7 µM and the inhibition at 10 µM (NCI-H322M; [2]) was 29.6%.
